The values below come from patent US20240024488A1, “COMPOUNDS AND USES THEREOF” (Foghorn Therapeutics Inc., priority 2020, published 2024).

In one assay the target is T1, HiBit-BRM fusion protein (Homo sapiens, UniProt P51531).
T1 construct: expressed in transfected cells
Briefly: HiBiT-BRM cell-based degradation assay (Nano-Glo HiBiT Lytic Detection, 24 h). To be noted: HeLa cell line expressing HiBiT-BRM; for DC50: read-out: BRM HiBit Degradation IC50. A digest of the protocol: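 Percent BRM loss was derived from HiBiT luminescence relative to DMSO-treated cells and cells given 2 μM of a known BRM/BRG1 degrader. Treatment lasted 24 h in HiBiT-BRM HeLa cells, with a top final concentration of 30 μM.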
For orientation: With HiBiT, luminescence reflects the tagged protein that the partner subunit can reach.

The target of assay [1] is T2, HiBit-BRG1 fusion protein (Homo sapiens, UniProt P51532).
T2 construct: expressed in transfected cells
Briefly: HiBiT-BRG1 cell-based degradation assay (Nano-Glo HiBiT Lytic Detection, 24 h). Conditions: HeLa cell line expressing HiBit-BRG1 and LgBit; for Dmax: read-out: BRG1 HiBit Degradation Maximum (%); for DC50: read-out: BRMG1 HiBit Degradation IC50. A digest of the protocol: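 Stable HeLa line co-expressing HiBit-BRG1 and LgBit, 5000 cells/well, treated 24 h in a tissue culture incubator. Lysed with Nano-Glo HiBiT lytic reagent, luminescence read. % degradation normalized to DMSO (high control) and 2 μM reference BRM/BRG1 degrader (low control).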

T1 sequence (P51531 whole entry, the tested form may be a part): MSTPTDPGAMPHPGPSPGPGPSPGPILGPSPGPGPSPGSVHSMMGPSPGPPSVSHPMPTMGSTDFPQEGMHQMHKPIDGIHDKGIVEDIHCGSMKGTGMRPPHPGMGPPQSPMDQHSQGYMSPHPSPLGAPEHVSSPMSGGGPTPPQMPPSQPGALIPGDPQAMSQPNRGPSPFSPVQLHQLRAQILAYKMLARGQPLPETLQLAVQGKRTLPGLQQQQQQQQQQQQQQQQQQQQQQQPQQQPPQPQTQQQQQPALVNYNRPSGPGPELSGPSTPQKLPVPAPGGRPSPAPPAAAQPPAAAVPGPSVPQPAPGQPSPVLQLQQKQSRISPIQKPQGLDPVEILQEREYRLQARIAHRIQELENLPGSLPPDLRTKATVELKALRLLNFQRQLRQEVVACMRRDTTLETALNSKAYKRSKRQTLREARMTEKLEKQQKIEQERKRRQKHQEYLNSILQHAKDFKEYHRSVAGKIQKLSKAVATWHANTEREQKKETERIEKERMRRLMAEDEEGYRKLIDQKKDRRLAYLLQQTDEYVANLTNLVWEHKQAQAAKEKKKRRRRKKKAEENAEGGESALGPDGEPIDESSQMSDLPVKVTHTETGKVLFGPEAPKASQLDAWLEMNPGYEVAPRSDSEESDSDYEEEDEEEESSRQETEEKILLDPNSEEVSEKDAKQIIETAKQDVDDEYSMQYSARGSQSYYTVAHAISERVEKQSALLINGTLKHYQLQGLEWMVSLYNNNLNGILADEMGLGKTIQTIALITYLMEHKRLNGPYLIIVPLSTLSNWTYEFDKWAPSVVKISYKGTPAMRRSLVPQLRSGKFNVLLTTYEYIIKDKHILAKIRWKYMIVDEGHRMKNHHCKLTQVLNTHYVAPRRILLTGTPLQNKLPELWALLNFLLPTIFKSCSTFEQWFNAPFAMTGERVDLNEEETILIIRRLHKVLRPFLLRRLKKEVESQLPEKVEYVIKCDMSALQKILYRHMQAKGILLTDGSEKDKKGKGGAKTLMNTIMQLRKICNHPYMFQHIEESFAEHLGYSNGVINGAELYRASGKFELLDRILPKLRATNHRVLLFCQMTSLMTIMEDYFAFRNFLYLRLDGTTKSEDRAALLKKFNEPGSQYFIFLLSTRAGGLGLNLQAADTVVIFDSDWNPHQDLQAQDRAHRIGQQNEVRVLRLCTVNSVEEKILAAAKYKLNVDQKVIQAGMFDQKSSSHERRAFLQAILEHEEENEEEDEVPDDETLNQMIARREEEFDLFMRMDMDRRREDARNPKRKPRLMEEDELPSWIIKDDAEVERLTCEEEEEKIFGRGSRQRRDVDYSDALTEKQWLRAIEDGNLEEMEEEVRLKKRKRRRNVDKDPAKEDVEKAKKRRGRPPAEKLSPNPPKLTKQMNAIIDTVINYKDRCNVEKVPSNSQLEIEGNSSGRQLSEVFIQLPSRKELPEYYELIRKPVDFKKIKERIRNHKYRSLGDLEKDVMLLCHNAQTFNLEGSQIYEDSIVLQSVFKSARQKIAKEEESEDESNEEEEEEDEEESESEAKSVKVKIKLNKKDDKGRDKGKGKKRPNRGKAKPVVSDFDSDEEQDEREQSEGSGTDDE
T2 sequence (P51532 whole entry, the tested form may be a part): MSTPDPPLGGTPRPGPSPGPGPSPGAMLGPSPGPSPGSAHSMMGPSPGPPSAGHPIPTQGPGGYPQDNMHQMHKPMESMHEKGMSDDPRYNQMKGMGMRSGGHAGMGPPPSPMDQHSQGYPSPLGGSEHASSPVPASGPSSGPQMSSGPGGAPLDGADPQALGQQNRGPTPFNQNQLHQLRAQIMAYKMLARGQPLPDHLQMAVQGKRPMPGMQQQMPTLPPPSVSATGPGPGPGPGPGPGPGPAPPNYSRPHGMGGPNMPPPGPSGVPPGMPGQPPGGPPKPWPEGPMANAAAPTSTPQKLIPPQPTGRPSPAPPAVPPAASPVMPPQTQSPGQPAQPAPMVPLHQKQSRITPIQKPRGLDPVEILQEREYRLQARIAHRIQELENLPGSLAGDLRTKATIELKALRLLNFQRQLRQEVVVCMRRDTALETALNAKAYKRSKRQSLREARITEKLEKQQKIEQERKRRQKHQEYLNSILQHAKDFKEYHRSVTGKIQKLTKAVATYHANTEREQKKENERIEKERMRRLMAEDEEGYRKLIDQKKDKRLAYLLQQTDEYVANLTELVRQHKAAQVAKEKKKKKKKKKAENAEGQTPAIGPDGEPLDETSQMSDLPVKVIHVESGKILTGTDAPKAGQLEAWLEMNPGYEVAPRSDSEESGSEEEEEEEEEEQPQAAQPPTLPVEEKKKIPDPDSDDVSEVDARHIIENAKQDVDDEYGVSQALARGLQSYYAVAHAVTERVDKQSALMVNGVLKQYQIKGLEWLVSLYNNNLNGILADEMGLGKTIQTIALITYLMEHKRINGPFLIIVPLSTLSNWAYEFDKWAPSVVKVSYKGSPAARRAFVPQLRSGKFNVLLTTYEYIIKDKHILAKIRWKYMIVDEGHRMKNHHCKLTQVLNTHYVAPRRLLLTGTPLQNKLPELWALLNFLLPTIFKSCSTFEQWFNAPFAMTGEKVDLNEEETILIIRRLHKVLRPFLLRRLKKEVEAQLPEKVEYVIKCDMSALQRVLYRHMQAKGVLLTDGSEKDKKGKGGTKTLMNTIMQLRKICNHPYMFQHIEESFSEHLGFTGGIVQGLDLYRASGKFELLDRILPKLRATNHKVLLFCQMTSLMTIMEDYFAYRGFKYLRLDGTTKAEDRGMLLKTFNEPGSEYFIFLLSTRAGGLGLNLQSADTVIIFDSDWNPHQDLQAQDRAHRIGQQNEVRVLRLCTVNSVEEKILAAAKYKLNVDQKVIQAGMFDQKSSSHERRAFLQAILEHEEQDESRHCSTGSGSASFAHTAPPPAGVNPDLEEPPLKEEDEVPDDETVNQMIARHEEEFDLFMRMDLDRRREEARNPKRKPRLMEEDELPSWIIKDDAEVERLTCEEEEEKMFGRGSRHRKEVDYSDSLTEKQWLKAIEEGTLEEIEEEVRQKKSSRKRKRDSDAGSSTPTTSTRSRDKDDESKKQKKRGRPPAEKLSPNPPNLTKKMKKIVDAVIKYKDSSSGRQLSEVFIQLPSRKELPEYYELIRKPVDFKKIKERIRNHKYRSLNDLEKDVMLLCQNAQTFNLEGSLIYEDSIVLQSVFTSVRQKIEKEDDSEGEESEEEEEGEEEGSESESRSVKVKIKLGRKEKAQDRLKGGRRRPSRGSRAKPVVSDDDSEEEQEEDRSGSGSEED

Take `Cc1ncsc1-c1ccc(CNC(=O)[C@@H]2C[C@@H](O)CN2C(=O)[C@@H](NC(=O)CCCC(=O)NC23CC(c4cc5cc(-c6ccccc6O)nnc5[nH]4)(C2)C3)C(C)(C)C)cc1` (racemic) [Compound 301, N1-((S)-1-((2S,4R)-4-hydroxy-2-((4-(4-methylthiazol-5-yl)benzyl)carbamoyl)pyrrolidin-1-yl)-3,3-dimethyl-1-oxobutan-2-yl)-N5-(3-(3-(2-hydroxyphenyl)-7H-pyrrolo[2,3-c]pyridazin-6-yl)bicyclo[1.1.1]pentan-1-yl)glutaramide]: on HiBit-BRM fusion protein, the “BRM HiBit Degradation Maximum (%)” value is “B (“B” indicates maximum degradation ≥ 50%)” and the DC50 was above 1000 nM. Besides, the Dmax in assay [1] was below 50%.

As to `Cc1ncsc1-c1ccc(CNC(=O)[C@@H]2C[C@@H](O)CN2C(=O)[C@@H](NC(=O)CCCCCCCCCCCCCC(=O)N2CC(c3cc4cc(-c5ccccc5O)nnc4[nH]3)C2)C(C)(C)C)cc1` [Compound 20, (2S,4R)-4-hydroxy-1-((S)-2-(15-(3-(3-(2-hydroxyphenyl)-7H-pyrrolo[2,3-c]pyridazin-6-yl)azetidin-1-yl)-15-oxopentadecanamido)-3,3-dimethylbutanoyl)-N-(4-(4-methylthiazol-5-yl)benzyl)pyrrolidine-2-carboxamide], on HiBit-BRM fusion protein, the “BRM HiBit Degradation Maximum (%)” value was “C (“C” indicates maximum degradation < 50%)”. The Dmax in assay [1] was below 50%.

Take `Cc1ncsc1-c1ccc([C@H](C)NC(=O)[C@@H]2C[C@@H](O)CN2C(=O)[C@@H](c2cc(C3CN(Cc4cc5cc(-c6ccccc6O)nnc5[nH]4)C3)no2)C(C)C)cc1` (racemic) [Compound 138, (2S,4R)-4-hydroxy-1-((R)-2-(3-(1-((3-(2-hydroxyphenyl)-7H-pyrrolo[2,3-c]pyridazin-6-yl)methyl)azetidin-3-yl)isoxazol-5-yl)-3-methylbutanoyl)-N-((S)-1-(4-(4-methylthiazol-5-yl)phenyl)ethyl)pyrrolidine-2-carboxamide]: on HiBit-BRM fusion protein, the “BRM HiBit Degradation Maximum (%)” value was “A (“A” indicates maximum degradation ≥ 75%)” and the DC50 was above 10 nM. Moreover, the Dmax in assay [1] is below 50%.

Take `Cc1ncsc1-c1ccc([C@H](C)NC(=O)[C@@H]2C[C@@H](O)CN2C(=O)[C@@H](c2cc(OCCNC(=O)[C@@H]3CCc4[nH]c5nnc(-c6ccccc6O)cc5c4C3)no2)C(C)C)cc1` (single isomer, unassigned) [Compound 172]: at HiBit-BRM fusion protein, the “BRM HiBit Degradation Maximum (%)” value is reported as “A (“A” indicates maximum degradation ≥ 75%)” and the DC50 is above 10 nM. The Dmax in assay [1] is below 50%.

With `Cc1ncsc1-c1ccc([C@H](C)NC(=O)[C@@H]2C[C@@H](O)CN2C(=O)[C@@H](c2cc(OCCN3CC(CCc4[nH]c5nnc(-c6ccccc6O)cc5c4C)C3)no2)C(C)C)cc1` (single isomer, unassigned) [Compound 198], at HiBit-BRM fusion protein, the “BRM HiBit Degradation Maximum (%)” value is “A (“A” indicates maximum degradation ≥ 75%)” and the DC50 is above 100 nM. Also, in assay [1], the Dmax is above 75% and the DC50 was above 100 nM.

`Cc1ncsc1-c1ccc([C@H](C)NC(=O)[C@@H]2C[C@@H](O)CN2C(=O)[C@@H](c2cc(N3CCN(C(=O)N4CC(c5cc6cc(-c7ccccc7O)nnc6[nH]5)C4)CC3)no2)C(C)C)cc1` (racemic) [Compound 124, (2S,4R)-4-hydroxy-1-[(2R)-2-[3-(4-{3-[3-(2-hydroxyphenyl)-7H-pyrrolo[2,3-c]pyridazin-6-yl]azetidine-1-carbonyl}piperazin-1-yl)-1,2-oxazol-5-yl]-3-methylbutanoyl]-N-[(1S)-1-[4-(4-methyl-1,3-thiazol-5-yl)phenyl]ethyl]pyrrolidine-2-carboxamide]: at HiBit-BRM fusion protein, the “BRM HiBit Degradation Maximum (%)” value is recorded as “A (“A” indicates maximum degradation ≥ 75%)” and the DC50 is above 10 nM. Also, the DC50 in assay [1] is above 100 nM.

On to `Cc1ncsc1-c1ccc([C@H](C)NC(=O)[C@@H]2C[C@@H](O)CN2C(=O)[C@@H](c2cc(C3CCN(Cc4cc5cc(-c6ccccc6O)nnc5[nH]4)CC3)no2)C(C)C)cc1` (racemic) [Compound 118, (2S,4R)-4-hydroxy-1-((R)-2-(3-(1-((3-(2-hydroxyphenyl)-7H-pyrrolo[2,3-c]pyridazin-6-yl)methyl)piperidin-4-yl)isoxazol-5-yl)-3-methylbutanoyl)-N-((S)-1-(4-(4-methylthiazol-5-yl)phenyl)ethyl)pyrrolidine-2-carboxamide], for which, on HiBit-BRM fusion protein, the “BRM HiBit Degradation Maximum (%)” value is “A (“A” indicates maximum degradation ≥ 75%)” and the DC50 is above 10 nM. Besides, the Dmax in assay [1] is below 50%.

In the case of `Cc1ncsc1-c1ccc([C@H](C)NC(=O)[C@@H]2C[C@@H](O)CN2C(=O)[C@@H](c2cc(OCC(=O)N[C@H]3CCc4[nH]c5nnc(-c6ccccc6O)cc5c4C3)no2)C(C)C)cc1` (single isomer, unassigned) [Compound 168], on HiBit-BRM fusion protein, the “BRM HiBit Degradation Maximum (%)” value is reported as “A (“A” indicates maximum degradation ≥ 75%)” and the DC50 was above 10 nM. The Dmax in assay [1] is below 50%.

Take `Cc1ncsc1-c1ccc([C@H](C)NC(=O)[C@@H]2C[C@@H](O)CN2C(=O)[C@@H](c2cc(OCCN3CCC[C@@H](c4c[nH]c5nnc(-c6ccccc6O)cc45)C3)no2)C(C)C)cc1` (racemic) [Compound 283, (2S,4R)-4-hydroxy-1-((R)-2-(3-(2-((S)-3-(3-(2-hydroxyphenyl)-7H-pyrrolo[2,3-c]pyridazin-5-yl)piperidin-1-yl)ethoxy)isoxazol-5-yl)-3-methylbutanoyl)-N-((S)-1-(4-(4-methylthiazol-5-yl)phenyl)ethyl)pyrrolidine-2-carboxamide]: at HiBit-BRM fusion protein, the “BRM HiBit Degradation Maximum (%)” value is listed as “B (“B” indicates maximum degradation ≥ 50%)” and the DC50 is above 10 nM. Moreover, the Dmax in assay [1] is below 50%.

Consider `Cc1ncsc1-c1ccc([C@H](C)NC(=O)[C@@H]2C[C@@H](O)CN2C(=O)[C@@H](c2cc(OCCN(C)[C@@H]3CCc4[nH]c5nnc(-c6ccccc6O)cc5c4C3)no2)C(C)C)cc1` [Compound 156, (2S,4R)-4-hydroxy-1-((R)-2-(3-(2-(((R)-3-(2-hydroxyphenyl)-6,7,8,9-tetrahydro-5H-pyridazino[3,4-b]indol-6-yl)(methyl)amino)ethoxy)isoxazol-5-yl)-3-methylbutanoyl)-N-((S)-1-(4-(4-methylthiazol-5-yl)phenyl)ethyl)pyrrolidine-2-carboxamide], for which, at HiBit-BRM fusion protein, the “BRM HiBit Degradation Maximum (%)” value is recorded as “A (“A” indicates maximum degradation ≥ 75%)” and the DC50 was above 10 nM. In addition, in assay [1], the Dmax was below 50%.

In the case of `Cc1ncsc1-c1ccc([C@H](C)NC(=O)[C@@H]2C[C@@H](O)CN2C(=O)[C@@H](c2cc(C3CCN(C(=O)[C@H]4C[C@]5(Cc6cc(-c7ccccc7O)nnc6N5)C4)CC3)no2)C(C)C)cc1` (racemic) [Compound 75, (2S,4R)-4-hydroxy-1-((R)-2-(3-(1-((1S,3r)-3′-(2-hydroxyphenyl)-5′,7′-dihydrospiro[cyclobutane-1,6′-pyrrolo[2,3-c]pyridazine]-3-carbonyl)piperidin-4-yl)isoxazol-5-yl)-3-methylbutanoyl)-N-((S)-1-(4-(4-methylthiazol-5-yl)phenyl)ethyl)pyrrolidine-2-carboxamide], on HiBit-BRM fusion protein, the “BRM HiBit Degradation Maximum (%)” value is “A (“A” indicates maximum degradation ≥ 75%)” and the DC50 is above 10 nM. Also, in assay [1], the Dmax was above 50% and the DC50 was above 100 nM.
